These results are taken from patent US6987105B2, “Synthesis and use of thienotriazolodiazepines” (Board of Supervisors of Louisiana State University And …, priority 2000, dated 2006).

Experiment [1] concerns angiogenesis in the mouse cornea. Nature of the experiment: mouse corneal micropocket assay (PAF-induced angiogenesis). Format: in vivo, mice. An excerpt: The mouse corneal micropocket assay according to the procedure of B. M. Kenyon et al., “A model of angiogenesis in the mouse cornea,” Invest. Ophthalmol. Vis. Sci. vol. 37, pp. 1625-1632 (1996), was used to test whether LAU-8080 would inhibit angiogenesis.
Mouse corneal micropocket assay: Corneal micropockets were created with a modified von Graefe knife in both eyes of 5- to 6-weeks old mice. Pellets containing vehicle of 0.1% BSA in PBS with 12% polyhydroxyethylmetacrylate (Hydron) were implanted in the corneas at 1 mm from the limbus of the mice for a control. For the PAF experiment, 500 ng cPAF was added to the pellet with vehicle. For the PAF-LAU experiment, mice were implanted with Hydron pellets containing 0.1% BSA in PBS, 500 ng CPAF, and then treated with the PAF antagonist LAU-8080 (30 μg/g body weight), i.p., once a day. Six days later, corneal pictures were taken under the microscope and vessel length and clock hours of circumferential neovascularization were measured.

Experiment [2] has as its system middle cerebral artery occlusion and reperfusion. The experiment in a line: middle cerebral artery occlusion (MCAO) and reperfusion stroke model. It is filed as in vivo, mice (C57BL/6). An excerpt:
To study the properties of LAU-8080 in an animal model of stroke, the technique of occluding the middle cerebral artery (middle cerebral artery occlusion, “MCAO”) which has been adapted to the mouse was used. The mouse middle cerebral artery occlusion is a well-recognized model of focal stroke as neuronal damage occurs when ischemia-reperfusion damages the brain. Adult male mice (C57BL/6) weighing 22-25 grams were induced to anesthesia with 1/70/30% halothane/nitrous oxide/oxygen, on a temperature controlled blanket. A line of PAF-R deficient mice (PAF receptor Knock-out mice), as described in S. Ishi et al., “Impaired anaphylactic responses with intact sensitivity to endotoxin in mice lacking a platelet-activating factor,” J. Exp. Med., vol. 187, pp. 1779-1788 (1998), was also used. The common carotid and external carotid arteries were exposed and dissected from surrounding tissue; the right external carotid artery was ligated. The right common carotid was temporarily occluded. A small arteriotomy to the external carotid artery was made so the occluding filament was introduced and advanced to the common carotid artery, and redirected into the internal carotid artery. The filament was advanced so that the blunted tip was placed in the anterior cerebral artery and the side of the filament occluded the origin of the middle cerebral artery. The common carotid artery was gently released, restoring blood flow to the carotid system. The wound was inspected for bleeding. All retracting sutures were removed, and the wound was closed. The anesthetic gases were stopped, and the animal was given oxygen until fully awake, then returned to his cage. After 60 minutes of occlusion, animals were reperfused by removal occluding filament. Animals were placed under anesthesia again, the occluding suture was delicately withdrawn from the arterial lumen, restoring blood flow to the territory of the middle cerebral artery. The wound was closed by interrupted silk sutures. The anesthetic gases were stopped, and the animal was given oxygen until fully awake.
The treated animals received a single i.p. injection of LAU-8080 (30 mg/kg) at 1 hour after reperfusion started, and control animals received vehicle injection (2-hydroxypropyl-β-cyclodextrin).
Scores were collected according Bederson's classification: a score of “0” indicates the animal moved freely changing directions. […]
(§1) Volumetric changes in infarcted brain regions in mice after 1 hour MCAO and 24-48 hours reperfusion was obtained by staining brain slices 1 mm thick with 2% 2,3,5-triphenyltetrazolium chloride (TTC). Quantitative analysis of the volume of the infarcted area was obtained by image-analysis.

For experiment [3] the test system is unchanged. Nature of the experiment: MCAO and reperfusion stroke model in PAF receptor Knock-out mice. It is filed as in vivo, PAF-R deficient mice (PAF receptor Knock-out mice).
Excerpt: To study the properties of LAU-8080 in an animal model of stroke, the technique of occluding the middle cerebral artery (middle cerebral artery occlusion, “MCAO”) which has been adapted to the mouse was used. The mouse middle cerebral artery occlusion is a well-recognized model of focal stroke as neuronal damage occurs when ischemia-reperfusion damages the brain. Adult male mice (C57BL/6) weighing 22-25 grams were induced to anesthesia with 1/70/30% halothane/nitrous oxide/oxygen, on a temperature controlled blanket. A line of PAF-R deficient mice (PAF receptor Knock-out mice), as described in S. Ishi et al., “Impaired anaphylactic responses with intact sensitivity to endotoxin in mice lacking a platelet-activating factor,” J. Exp. Med., vol. 187, pp. 1779-1788 (1998), was also used. The common carotid and external carotid arteries were exposed and dissected from surrounding tissue; the right external carotid artery was ligated. The right common carotid was temporarily occluded. […]
as §1

Experiment [4] relates to PAF binding site of the synaptosomal, plasma membrane. As to conditions: cited from earlier work.
For experiment [5], the system named is PAF binding sites of microsomal membranes. As to conditions: cited from earlier work.
The next experiment relates to photoreceptor cells. The experiment in a line: light-induced retina damage model (bright light-treated photoreceptors). It is filed as in vivo, Sprague-Dawley rats. As to conditions: rat, 30 mg/kg i.p. pretreatment. As to the method: The light-induced retina damage model selectively promotes the killing of photoreceptor cells as it occurs in age-related macular degeneration and retinitis pigmentosa.
Sprague-Dawley rats (150-175 g males) were dark adapted for 3 days. Two hours before light treatment they were injected i.p. with LAU-8080 (30 mg/kg) suspended in a vehicle (cyclo-dextrin) or just vehicle. A third group received no injection. Rats were placed in 5 inch diameter cylindrical lucite tubes which were then placed within an 8-light array of 10 inch diameter fluorescent lights (40 Watt, G.E. cool white; 350 μE/m^2·s; 25 klux) for up to 5 hours. After 10 days in darkness, eyes were collected and prepared for histology. […] The profile of the photoreceptor nuclear layer of the light+vehicle, light+vehicle+LAU-8080, and dark rat retinas were compared. The percent cell loss under each condition was calculated against the dark animal controls.

For the compound “1-O-alkyl-2-acetyl-sn-glycero-3-phosphocholine [PAF, reference compound]”, the “angiogenesis (vessel length and clock hours) induced by pellet” value in experiment [1] (pellet with 500 ng cPAF, 6 days after implantation, versus vehicle pellet) is given as “strongly induced”.

For `COc1ccc(NC(=S)N2CCc3c(sc4c3C(c3ccccc3Cl)=NCc3nnc(C)n3-4)C2)cc1` [LAU-8080, 6-(2-chlorophenyl)-9-[(4-methoxyphenyl)thiocarbamoyl]-1-methyl-7,8,9,10-tetrahydro-4H-pyrido[4′,3′:4,5]thieno[3,2-f]-1,2,4-triazolo[4,3-a]-1,4-diazepine], the “neurological scores (Bederson's classification)” value in experiment [2] (30 mg/kg i.p. 1 hour after reperfusion, noticeable 24 hours after reperfusion) is “significative improvement”. Moreover, the infarct volume result is “significant reduction” in experiment [2] (1 hour MCAO and 48 hours reperfusion, injection 1 hour after reperfusion onset, p<0.0026); “small reduction” in experiment [3] (PAF receptor Knock-out mice). The survival in experiment [2] (1 hour MCAO, single i.p. 30 mg/kg 1 hour after onset of reperfusion, followed-up 14 days, n=20, p<0.04 vs vehicle) is reported as 35%; in experiment [3] (PAF knock-out mice, injection one hour after reperfusion, p<0.0074) it was “significative protection”. The “effect of injection at different times during the procedure versus 1 hour after reperfusion” value in experiment [2] (MCAO mice) is “did not differ significantly”. In addition, the “displacement of PAF” value in experiment [4] is given as “not from the synaptosomal, plasma membrane”; in experiment [5], “displace PAF from microsomal membranes”. For the same compound, in the experiment on photoreceptor cells, the “cell loss in an area near the center of the photodamage region” value is “complete lack of cell loss”. For the same compound, the “depth of photoreceptor nuclear layer” value in the experiment with photoreceptor cells came out at 12 cells deep. The “angiogenesis (vessel length and clock hours of circumferential neovascularization)” value in experiment [1] (500 ng cPAF pellet, LAU-8080 30 μg/g body weight i.p. once a day, 6 days, p<0.05) is listed as “significantly reduced”.
